Source: ChEMBL document CHEMBL1201862, “PubChem BioAssay data set” (2004)
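Growth conditions: 96-well plates. Treatment: test compound, 48 hours, 5 concentrations. Analysis: linear interpolation between bracketing concentrations; unreached endpoints set to highest concentration. At the GI50, growth is halved.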 Active and inactive are the calls of the source. No stated cut-off is given here; in the data, active = GI50 up to about 1.1 µM and inactive = higher.

Columns and labels:
Assay in all cases: inhibition of tumour cell growth, NCI panel, 48 h
SF-295 = test system: SF-295
SN12C = test system: SN12C
786-0 = test system: 786-0
U-251 = test system: U-251
RPMI-8226 = test system: RPMI-8226
SK-MEL-5 = test system: SK-MEL-5
HOP-92 = test system: HOP-92
OVCAR-4 = test system: OVCAR-4
UO-31 = test system: UO-31
NCI-H460 = test system: NCI-H460
HCC 2998 = test system: HCC 2998
TK-10 = test system: TK-10
CCRF-CEM = test system: CCRF-CEM
ACHN = test system: ACHN
OVCAR-3 = test system: OVCAR-3
SW-620 = test system: SW-620
A498 = test system: A498
UACC-62 = test system: UACC-62
SR = test system: SR

Row | SMILES | GI50 (SF-295) | GI50 (SN12C) | GI50 (786-0) | GI50 (U-251) | GI50 (RPMI-8226) | GI50 (SK-MEL-5) | GI50 (HOP-92) | GI50 (OVCAR-4) | GI50 (UO-31) | GI50 (NCI-H460) | GI50 (HCC 2998) | GI50 (TK-10) | GI50 (CCRF-CEM) | GI50 (ACHN) | GI50 (OVCAR-3) | GI50 (SW-620) | GI50 (A498) | GI50 (UACC-62) | GI50 (SR)
1 | CCn1c2ccccc2c2ccc3c(c21)C(=O)C=CC3=O | 20.4 µM (inactive) | 18.2 µM (inactive) | 1.89 µM (inactive) | 15.9 µM (inactive) | 10.3 µM (inactive) | < 0.01 µM (active) | 12.2 µM (inactive) | 4.06 µM (inactive) | 10 µM (inactive) | 20.2 µM (inactive) | 20.9 µM (inactive) | 16.4 µM (inactive) | 0.375 µM (active) | 16.5 µM (inactive) | 13.5 µM (inactive) |  |  |  | 
2 | CCN(CC)c1c(C(=O)/C=C/c2ccc(F)cc2)c(-c2ccccc2)nn(C)c1=O | 12.2 µM (inactive) | 6.93 µM (inactive) | 10.3 µM (inactive) | 5.98 µM (inactive) | 2.94 µM (inactive) | 8.89 µM (inactive) | 3.85 µM (inactive) | 4.24 µM (inactive) | 11.3 µM (inactive) | 4.49 µM (inactive) | 3.3 µM (inactive) | 17.7 µM (inactive) | 2.11 µM (inactive) | 6.9 µM (inactive) | 3.82 µM (inactive) | 8.59 µM (inactive) | 7.57 µM (inactive) | 10.3 µM (inactive) | 
3 | COc1ccc2ccnc(Cc3ccc(OCc4ccccc4)c(OC)c3)c2c1 | 26.4 µM (inactive) | 14.2 µM (inactive) | 19.2 µM (inactive) | 20.9 µM (inactive) | 16.2 µM (inactive) | 15.1 µM (inactive) |  | 14.2 µM (inactive) | 6 µM (inactive) | 18.9 µM (inactive) | 19.3 µM (inactive) | 27.9 µM (inactive) | 27.4 µM (inactive) | 23.6 µM (inactive) | 17.1 µM (inactive) | 33.5 µM (inactive) | 21.8 µM (inactive) |  | 
4 | COc1cc(C(CC(OC)OC)=C(C#N)C#N)cc(OC)c1OC | 19.5 µM (inactive) | 29.2 µM (inactive) | 21.4 µM (inactive) | 13.3 µM (inactive) |  | 7.4 µM (inactive) | 17.1 µM (inactive) |  | 28.1 µM (inactive) | 6.52 µM (inactive) | 18.7 µM (inactive) | 58.3 µM (inactive) | 5.36 µM (inactive) | 26.7 µM (inactive) | 34.3 µM (inactive) | 29.7 µM (inactive) | 8.13 µM (inactive) | 26.7 µM (inactive) | 14.5 µM (inactive)
5 | C/C(CC(=O)Nc1cc(Cl)c(Cl)cc1Cl)=N\NS(=O)(=O)c1ccc(C)cc1 | 37.1 µM (inactive) |  | 41.9 µM (inactive) | 32 µM (inactive) | 27.4 µM (inactive) | 38.3 µM (inactive) | 23.1 µM (inactive) |  | 21 µM (inactive) | 38.8 µM (inactive) | 35.3 µM (inactive) | 48.5 µM (inactive) | 27.5 µM (inactive) | 25.1 µM (inactive) | 25.5 µM (inactive) | 58.3 µM (inactive) | 53.6 µM (inactive) | 26.5 µM (inactive) | 
6 | CON(C)C(=O)CCCO | > 100 µM (inactive) | > 100 µM (inactive) | > 100 µM (inactive) | > 100 µM (inactive) | > 100 µM (inactive) | > 100 µM (inactive) | > 100 µM (inactive) | > 100 µM (inactive) | > 100 µM (inactive) | > 100 µM (inactive) |  | > 100 µM (inactive) | > 100 µM (inactive) | > 100 µM (inactive) | > 100 µM (inactive) | > 100 µM (inactive) |  | > 100 µM (inactive) | > 100 µM (inactive)
7 | c1ccc2c(NCCCCCCNc3cccc4ccccc34)cccc2c1 | > 100 µM (inactive) | > 100 µM (inactive) | > 100 µM (inactive) | > 100 µM (inactive) | 87.3 µM (inactive) | 60.3 µM (inactive) | 50.7 µM (inactive) | 66.1 µM (inactive) | 98.2 µM (inactive) | > 100 µM (inactive) | > 100 µM (inactive) | > 100 µM (inactive) | 38.8 µM (inactive) | > 100 µM (inactive) | > 100 µM (inactive) | 74.5 µM (inactive) | > 100 µM (inactive) | 64.6 µM (inactive) | 
8 | COc1ccc(C(=O)O[C@H]2[C@@H]3C=CO[C@@H](OC4OC(CO)C(O)C(O)C4O)[C@@H]3[C@@]3(CO)O[C@@H]23)cc1O (stereo not given in full) | > 100 µM (inactive) | > 100 µM (inactive) | > 100 µM (inactive) | > 100 µM (inactive) | > 100 µM (inactive) | > 100 µM (inactive) | > 100 µM (inactive) | > 100 µM (inactive) | > 100 µM (inactive) | > 100 µM (inactive) | > 100 µM (inactive) | > 100 µM (inactive) | > 100 µM (inactive) | > 100 µM (inactive) | > 100 µM (inactive) | > 100 µM (inactive) | > 100 µM (inactive) | > 100 µM (inactive) | 
9 | Cn1c2c(c3ccccc31)CCN(CCN1CCN(c3cccc(Cl)c3)CC1)C2=O |  | 32.1 µM (inactive) | > 100 µM (inactive) | > 100 µM (inactive) | 21.6 µM (inactive) | 23.6 µM (inactive) | 19.9 µM (inactive) |  | 30.3 µM (inactive) |  |  | > 100 µM (inactive) | > 100 µM (inactive) | > 100 µM (inactive) |  | 63.4 µM (inactive) | > 100 µM (inactive) | 72.9 µM (inactive) | 
10 | O=C(Nc1ccccc1-c1nc2ccccc2[nH]c1=O)c1ccccc1 | 20.9 µM (inactive) | 27.3 µM (inactive) | 17.3 µM (inactive) | 23.3 µM (inactive) | 21.8 µM (inactive) | 32.6 µM (inactive) | 21.4 µM (inactive) | 19.9 µM (inactive) | 19.6 µM (inactive) | 21.5 µM (inactive) | 15.4 µM (inactive) | 17.1 µM (inactive) | > 100 µM (inactive) | 20.1 µM (inactive) | 20.3 µM (inactive) | 27.9 µM (inactive) | 20.4 µM (inactive) | 26.1 µM (inactive) | 
11 | C(=C\c1ccccc1)/C=N/c1ccc2c(c1)Cc1ccccc1-2 | > 100 µM (inactive) | 41.1 µM (inactive) | 54.2 µM (inactive) | 18.7 µM (inactive) |  | 98.9 µM (inactive) | > 100 µM (inactive) | 63.8 µM (inactive) | > 100 µM (inactive) | 58.1 µM (inactive) |  | 60.8 µM (inactive) | 14.7 µM (inactive) | > 100 µM (inactive) | 46 µM (inactive) | 69 µM (inactive) | > 100 µM (inactive) | > 100 µM (inactive) | 24 µM (inactive)
12 | C=CCC1C(=O)CC2(C)C(CC=C)C(=O)CC12C (stereo not given) | > 100 µM (inactive) | > 100 µM (inactive) | > 100 µM (inactive) | > 100 µM (inactive) | > 100 µM (inactive) | > 100 µM (inactive) | > 100 µM (inactive) | > 100 µM (inactive) | > 100 µM (inactive) | > 100 µM (inactive) | > 100 µM (inactive) | > 100 µM (inactive) | > 100 µM (inactive) | > 100 µM (inactive) | > 100 µM (inactive) | > 100 µM (inactive) |  | > 100 µM (inactive) | > 100 µM (inactive)
13 | C=Cc1ccc(C)[n+](C[Si](C)(C)O[Si](C)(C)C)c1 | > 100 µM (inactive) | > 100 µM (inactive) | > 100 µM (inactive) | > 100 µM (inactive) | > 100 µM (inactive) | > 100 µM (inactive) |  | 42.3 µM (inactive) | > 100 µM (inactive) |  | > 100 µM (inactive) |  | > 100 µM (inactive) | > 100 µM (inactive) | > 100 µM (inactive) | > 100 µM (inactive) |  | > 100 µM (inactive) | > 100 µM (inactive)
14 | CSc1ccc2c(cc1=O)[C@@H](NC(=O)c1ccc(Cl)cc1)CCc1cc(O)c(O)c(O)c1-2 | 38.5 µM (inactive) | 24.5 µM (inactive) | > 100 µM (inactive) | 21.8 µM (inactive) | 23.3 µM (inactive) | 50.4 µM (inactive) | > 100 µM (inactive) | 29.6 µM (inactive) | > 100 µM (inactive) | 43.5 µM (inactive) | > 100 µM (inactive) | > 100 µM (inactive) | 28.1 µM (inactive) | > 100 µM (inactive) | 23.2 µM (inactive) | 19.5 µM (inactive) | > 100 µM (inactive) | 22.5 µM (inactive) | 
15 | Cc1c(O)c(=O)ccn1C1OC(CO)C(O)C1O (stereo not given) | > 100 µM (inactive) | > 100 µM (inactive) | 85.9 µM (inactive) | > 100 µM (inactive) | > 100 µM (inactive) | > 100 µM (inactive) | > 100 µM (inactive) | > 100 µM (inactive) | > 100 µM (inactive) | 59.4 µM (inactive) |  | 68.9 µM (inactive) | 39.5 µM (inactive) | > 100 µM (inactive) | > 100 µM (inactive) | > 100 µM (inactive) | > 100 µM (inactive) | 96.2 µM (inactive) | > 100 µM (inactive)
16 | Cc1cc2c(ccc3c(C)cc(=O)oc32)o1 | > 100 µM (inactive) | > 100 µM (inactive) | > 100 µM (inactive) | > 100 µM (inactive) | > 100 µM (inactive) | > 100 µM (inactive) | > 100 µM (inactive) | > 100 µM (inactive) | 98.9 µM (inactive) | > 100 µM (inactive) | > 100 µM (inactive) | > 100 µM (inactive) | > 100 µM (inactive) | > 100 µM (inactive) | > 100 µM (inactive) | > 100 µM (inactive) |  | > 100 µM (inactive) | > 100 µM (inactive)
